Results published in patent US20200069592A1, “HSP90 INHIBITOR ORAL FORMULATIONS AND RELATED METHODS” (Samus Therapeutics, Inc., priority 2017, published 2020).
Like-named read-outs stand apart in the source and are kept apart here.

How the values were obtained:
[1] = Particle size distribution (Cilas 1180) of as-received and jet milled API (Example 8); format: physicochemical
Procedure: Compound 2 API ‘as-received’ (Lots #2064-118-8, #2064-146-9, and # BPR-WS 1828-194D(2HCl)—B1-19) were analyzed for PSD on a Cilas 1180 particle size analyzer. Subsequently jet milled API batches B # L0441-20-JM51mmP1, B # L0441-20-JM51mmP2, B # L0441-20-JM51mmP3, and B # L0441-84-JM146mmP1 were also analyzed for PSD Approximately 50 mg Compound 2-2HCl was dispersed into 40 mL 0.2% (w/w) span 80 in n-hexanes (dispersant) and allowed to mix for 60 minutes. API was kept suspended in dispersant via stirring and sonication during test.
A jet milling study was performed on a batch of Compound 2 2HCl with jet mill Fluid Energy Asset #00170 outfitted with a 51 mm collection loop. Batches B # L0441-29-JM51mmP1, B # L0441-29-JM51mmP2, and B # L0441-29-JM51mmP3 were created from ˜10 g of Compound 2 lot # BPR-WS1828-194D(2HCl)-B1-19 subjected to 3 passes. Jet mill settings for grinder nozzle and pusher nozzle as follows: Pass 1 grinder nozzle=60 psi & pusher nozzle=80 psi, Pass 2 and 3 grinder nozzle=50 psi & pusher nozzle=70 psi.
After successfully jet milling on the R&D scale, B # L0441-84-JM146mmP1 was created from Compound 2-2HCl lot # BPR-17-87-B1-21d which was processed with a single pass to confirm GMP scale up conditions in the R&D laboratory by passing 85 g through the GMP jet mill Jet-O-Mizer Asset #01 16 Model 0101 outfitted with 146 mm collection loop using a standard nylon 4×48-inch collection sock inside a PTFE 4×48-inch sock to minimize fines loss. The pressure settings for the grinder and pusher nozzle were: Grinder nozzle 60 psi, Pusher nozzle 70 psi.

[2] = female, Sprague Dawley, rat, in vivo, po
Procedure: (§1) The animals used in this study were female Sprague Dawley Rats physiologically normal. At the time of receipt, mice were 200-225 g in weight. […] Ninety-four total animals were observed thereafter. The parenteral administration is performed by tail vein injection.
(§2) Compound 2 was provided in free base form and stored at −20° C., protected from light. Compound 2 was formulated in dosage form immediately prior to use. For oral administration of Compound 2 in ORA-Plus® drinking solution, Compound 2 was suspended in drinking solution ORA-Plus® (Perrigo; Minneapolis, Minn.). First, a mortar and pestle were used to smooth out the Compound 2 powder, then a small amount of ORA-Plus® was added, and next, the mixture was triturated to a thick, smooth paste. The remainder of the ORA-Plus® was added by geometric dilution. The Compound 2 free base and ORA-Plus® mixture was dispensed in a tight, light resistant amber bottle with appropriate labeling. This mixture was shaken well before using, protected from light and kept refrigerated if dosing was delayed. For oral administration of Compound 2 in citric acid buffer with Captisol®, Compound 2 free base powder was dissolved or suspended into 30% Captisol® (Cydex Pharmaceuticals; Lawrence, Kans.) in 60 mM citrate buffer (pH˜4.2) (citric acid and sodium citrate dehydrate (Sigma-Aldrich; St. Louis Mo.)) in sterile water) to each group's working concentration. […] A magnetic stir-bar was used to mix dosing solution, followed by sonication. For intravenous administration, Compound 2 free base powder was dissolved into 15% Captisol® in 5 mM citrate buffer (pH˜4.2) to each group's working concentration. A magnetic stirbar was used to mix dosing solution, followed by sonication. IV dosing solution of Compound 2 free base was filtered with a 0.2 m PVDF filter (Pall Life Sciences; Port Washington, N.Y.) prior to administration.
(§3) Dose levels of Compound 1 were based on the free base, not the salt.
(§4) Animals were randomized using random equilibration of body weights on Day 1 into one of 19 study groups, as shown in Table 23 (Groups 1-19), with 5 animals in each group, except for the 4 animals in Group 19. Body weights were collected Days 1, 2, 3, and/or 4 to accommodate data collection of staggered groups. Gross observations of body weight were noted during the course of the study.

[3] = Plasma pharmacokinetics after single PO or IV administration (Example 5), LC-MS/MS; settings: female, Sprague-Dawley, rat, plasma, dosed as 2HCl; for AUC(0-t): AUC0-last (hr*ng/mL) Mean ± StdDev; for Cmax: Cmax (ng/mL) Mean ± StdDev; for Tmax: Tmax (hr) Mean ± StdDev
Procedure: as §1, §2, §3, §4

[4] = after jet milling, 51 mm collection loop
[5] = iv, 12 mg/kg, Group 18: 12 mg/kg IV, 0.9% Saline
[6] = iv, 24 mg/kg, Group 19: 24 mg/kg IV, 0.9% Saline
[7] = po, 24 mg/kg, Group 11: 24 mg/kg PO, ORA-Plus, single dose
[8] = po, 36 mg/kg, Group 12: 36 mg/kg PO, ORA-Plus
[9] = po, 36 mg/kg, Group 15: 36 mg/kg PO, 0.5% Methylcellulose in water
[10] = po, 48 mg/kg, Group 13: 48 mg/kg PO, ORA-Plus
[11] = po, 48 mg/kg, Group 16: 48 mg/kg PO, 0.5% Methylcellulose in water
[12] = po, 60 mg/kg, Group 14: 60 mg/kg PO, ORA-Plus
[13] = po, 60 mg/kg, Group 17: 60 mg/kg PO, 0.5% Methylcellulose in water

CC(C)(C)CNCCn1c(Sc2cc3c(cc2I)OCO3)nc2c(N)ncnc21 [B #132-L0441-20-JM51mmP1]
Particle size d10 [1, 4]: 3.1 μm
Particle size d50 [1, 4]: 7.9 μm
Particle size d90 [1, 4]: 17.3 μm
Particle size span [1, 4]: 14.2 μm
Particle size d90 ([1]; as quoted for the batches used in Example 9, listed as B # L0441-20-JM51mmP1): 17 um

CC(C)(C)CNCCn1c(Sc2cc3c(cc2I)OCO3)nc2c(N)ncnc21 [B #132-L0441-20-JM51mmP2]
Particle size d10 [1, 4]: 2.3 μm
Particle size d50 [1, 4]: 5.6 μm
Particle size d90 [1, 4]: 11.7 μm
Particle size span [1, 4]: 9.4 μm
Particle size d90 ([1]; as quoted for the batches used in Example 9, listed as B # L0441-20-JM51mmP2): 11 um

CC(C)(C)CNCCn1c(Sc2cc3c(cc2I)OCO3)nc2c(N)ncnc21 [B #132-L0441-20-JM51mmP3]
Particle size d10 [1, 4]: 2.0 μm
Particle size d50 [1, 4]: 4.8 μm
Particle size d90 [1, 4]: 10.1 μm
Particle size span [1, 4]: 8.1 μm

CC(C)NCCCn1c(Sc2cc3c(cc2I)OCO3)nc2c(N)ncnc21 [Compound 1]
% AUC0-last ORA vs methylcellulose Mean ± StdDev ([2]; 36 mg/kg): 119.11 ± 45.91%
% Cmax ORA vs methylcellulose Mean ± StdDev ([2]; 36 mg/kg): 118.75 ± 64.56%
% AUC0-last ORA vs methylcellulose Mean ± StdDev ([2]; 48 mg/kg): 111.81 ± 69.18%
% Cmax ORA vs methylcellulose Mean ± StdDev ([2]; 48 mg/kg): 89.30 ± 37.98%
% AUC0-last ORA vs methylcellulose Mean ± StdDev ([2]; 60 mg/kg): 70.33 ± 23.05%
% Cmax ORA vs methylcellulose Mean ± StdDev ([2]; 60 mg/kg): 66.16 ± 17.44%
AUC(0-t) [3, 5]: 2470 ± 573 ng·h/mL
Cmax [3, 5]: 1280 ± 325 ng/mL
Tmax [3, 5]: 0.25 h
AUC(0-t) [3, 6]: 5500 ± 2800 ng·h/mL
Cmax [3, 6]: 2080 ± 79.3 ng/mL
Tmax [3, 6]: 0.31 ± 0.13 h
AUC(0-t) [3, 7]: 2700 ± 462 ng·h/mL
Cmax [3, 7]: 807 ± 214 ng/mL
Tmax [3, 7]: 2 h
AUC(0-t) [3, 8]: 3220 ± 870 ng·h/mL
AUC(0-t) [3, 9]: 2850 ± 919 ng·h/mL
Cmax [3, 8]: 853 ± 193 ng/mL
Cmax [3, 9]: 812 ± 270 ng/mL
Tmax [3, 8]: 2 h
Tmax [3, 9]: 2.2 ± 1.1 h
AUC(0-t) [3, 10]: 6500 ± 2030 ng·h/mL
AUC(0-t) [3, 11]: 6500 ± 1690 ng·h/mL
Cmax [3, 10]: 1420 ± 470 ng/mL
Cmax [3, 11]: 1650 ± 271 ng/mL
Tmax [3, 10]: 2.4 ± 0.89 h
Tmax [3, 11]: 1.4 ± 0.55 h
AUC(0-t) [3, 12]: 4870 ± 1420 ng·h/mL
AUC(0-t) [3, 13]: 7320 ± 2440 ng·h/mL
Cmax [3, 12]: 1120 ± 175 ng/mL
Cmax [3, 13]: 1760 ± 458 ng/mL
Tmax [3, 12]: 3 ± 2 h
Tmax [3, 13]: 1.5 ± 0.71 h
